Assay results: patent US20240294478A1, “ANTI-CANCER COMPOUNDS AND METHODS OF USE” (YALE UNIVERSITY, priority 2021, published 2024)

Legend:
Type in all cases: cell-based, human
LN229 MGMT− shMLH1 cells = assay: Short-term viability assay, LN229 MGMT- shMLH1; conditions: for IC50: Homo sapiens, LN-229, Table III, read-out: IC50 against LN229 cell lines, MGMT− MMR−; for MGMT− RI: Table III
Experimental: (§1) The activity of KL-50 in MGMT-LN229 cells engineered to lack expression of other key MMR proteins including MSH6, MLH1, PMS2, and MSH3 was also confirmed. Western blotting was performed in LN229 MGMT+/−cells with stable expression of shRNA targeting MSH6, MLH1, PMS2, or MSH3 to confirm depletion of the shRNA targets. In shMSH6 cells, there was reduced expression of MSH2, and in shMLH1 cells, there was loss of PMS2, due to destabilization in the setting of loss of their heterodimeric partners. GAPDH serves as loading control. […] Short-term viability assay curves for KL-50 in LN229 MGMT+/−, MMR+/shMSH6 cells. […] Short-term viability assay curves for KL-50 in LN229 MGMT+/−, MMR+/shMLH1 cells. […] Short-term viability assay curves for KL-50 in LN229 MGMT+/−, MMR+/shPMS2 cells. […] Short-term viability assay curves for KL-50 in LN229 MGMT+/−, MMR+/shMSH3 cells.
(§2) MMR Protein shRNA Knockdown. pGIPZ lentiviral shRNA vectors targeting MSH2, MSH6, MLH1, PMS2, and MSH3 were purchased from Horizon Discovery (Table IV). Lentiviral particles were produced in HEK293T cells via co-transfection with lentiviral shRNA plasmid, pCMV-VSV-G envelope plasmid (Addgene, #8454) and psPAX2 packaging plasmid (Addgene, #12260), using Lipofectamine 3000 Reagent (Invitrogen, L3000001) per manufacturer's protocol. Viral particles were harvested 48 h post-transfection and used to transduce LN229 MGMT+/−cells in the presence of 8 μg/mL polybrene. Selection of pooled cells with lentiviral expression was established with 1 μg/mL puromycin 48 h post-transduction for 3 to 4 days. Single cell cloning was performed by limiting dilution and protein knockdown was confirmed by western blotting.
(§3) Short-term Cell Viability Assay. Cells were seeded in 96-well plates at 1000 or 2000 cells/well and allowed to adhere at 23° C. for 60 min and then incubated overnight at 37° C. Cells were treated with indicated concentrations of compounds in triplicate for 4-6 days prior to fixation with 3.7% paraformaldehyde and nuclear staining with 1 μg/mL Hoechst 33342 dye. Cells were imaged on a Cytation 3 imaging reader (BioTek) and quantified using CellProfiler software. For in vitro short-term growth delay experiments, IC50 values were determined from the nonlinear regression equation, [inhibitor] vs normalized response with variable slope.

LN229 MGMT− shPMS2 cells = assay: Short-term viability assay, LN229 MGMT- shPMS2; conditions: for IC50: Homo sapiens, LN-229, Table III, read-out: IC50 against LN229 cell lines, MGMT− MMR−; for MGMT− RI: Table III
Experimental: as §1, §2, §3

MGMT+ LN229 cells = assay: Clonogenic survival assay, LN229 MGMT+ cells
Experimental: (§4) In vitro clonogenic survival assays (CSAs) were performed using four isogenic LN229 glioblastoma cell lines.
(§5) Clonogenic Cell Survival Assay. Cells of each line were pretreated with the test drug in culture for 48-72 hours at the specified dilutions. The cells were then immediately seeded in six-well plates in triplicate at three-fold dilutions, ranging from 9000 to 37 cells per well. Depending on colony size, these plates were kept in the incubator for 10 to 14 days. After incubation, colonies were washed in phosphate-buffered saline (PBS) and stained with crystal violet. Colonies were counted by hand. Counts were normalized to plating efficiency of the corresponding treatment condition.

MGMT− LN229 cells = assay: Clonogenic survival assay, LN229 MGMT- cells
Experimental: as §4, §5

MGMT−/MMR+ cells = assay: IR alkaline comet assay, LN229 MGMT-/MMR+; conditions: for IR-induced comet tail (ICL formation): 200 μM; for comet tailing in the absence of IR: TMZ 200 μM, KL-50 200 μM, MMC 0.1 or 50 μM
Experimental: The IR alkaline comet assay, adapted for ICL detection was performed to determine if ICLs were formed in MGMT-cells treated with KL-50. In this assay, cells were sequentially exposed to genotoxins and ionizing radiation, and then analyzed by single cell alkaline gel electrophoresis. Attenuation of the IR-induced comet tail is indicative of ICL formation.
IR Alkaline Comet Assay. This assay was performed utilizing the CometAssay™ Kit (Trevigen) according to the alkaline assay protocol, with the addition of slide irradiation post-lysis. Cells were trypsinized, washed with 1×PBS, added to melted Comet LMAgarose (Trevigen), and spread on Trevigen CometSlides at a density of 1000 cells per sample in 50 μL. Lysis solution (Trevigen) with 10% DMSO was added overnight at 4° C. […] Slides were then placed in alkaline buffer (200 mM NaOH, 1 mM EDTA) for 45 min, followed by electrophoresis in 850 mL alkaline buffer for 45 min at 4° C. Slides were washed and stained with SYBR gold (Invitrogen) per Trevigen assay protocol. Slides were imaged on a Cytation 3 imaging reader (BioTek), and comets were analyzed using CometScore 2.0 software (TriTek).

[1] = tested on: ATR-CHK1 and ATM-CHK2 signaling axes in LN229 MGMT+/−, MMR+/− cells; assay: Western blotting of CHK1 and CHK2 phosphorylation; conditions: 20 μM, 24 or 48 h
Experimental: FIGS. 5A-5K: KL-50 activates DNA damage response pathways and cycle arrest in MGMT-cells, independent of MMR, and induces sensitivity in cells deficient in ICL or HR repair. […] Columns, mean; error bars, SD; n 5 technical replicates. FIGS. 5D-5K: KL-50 induces activation of the ATR-CHK1 and ATM-CHK2 signaling axes and delayed DNA repair foci formation in MGMT-deficient cells, independent of MMR status. […] Treatment with 1 μM doxorubicin for 24 h (Doxo) served as a positive control for p-CHK1 activation. […] Points, mean % cells with >10 foci; error bars, SD; n >5 technical replicates. […] Points, % cells with 10 foci, n>250 cells per condition.
A prior finding that the ATR-CHK1 signaling axis is activated in response to TMZ-induced replication stress in MGMT-deficient cells prompted analysis of the phosphorylation status of CHK1 and CHK2 in LN229 MGMT+/− and MMR+/−cells. […] Analysis of foci formation of the DDR factors phospho-SER139-H2AX (yH2AX), p53 binding protein 1 (53BP1), and phospho-SER33-RPA2 (pRPA) over the period of 2 to 48 h (FIGS. 5A-5C and FIGS. 5D-5I). […] However, these foci dissipate at later timepoints (72-96 h; FIGS. 5J-5K), and they are not associated with appreciable cellular toxicity (as shown earlier in FIGS. 2A and 2B).

## Cn1nnc2c(C(N)=O)ncn2c1=O [TMZ, 4-methyl-5-oxo-2,3,4,6,8-pentazabicyclo[4.3.0]nona-2,7,9-triene-9-carboxamide, reference compound]
LN229 MGMT− shMLH1 cells
  IC50: 917 ± 85 µM
  MGMT− RI: 180
LN229 MGMT− shPMS2 cells
  IC50: 921 ± 190 µM
  MGMT− RI: 181
MGMT+ LN229 cells; irrespective of MMR status
  clonogenic survival, activity in MGMT+ cells: negligible activity
MGMT− LN229 cells
  clonogenic survival, activity in MGMT−, MMR+ cells: robust tumor cell killing
MGMT− LN229 cells; isogenic cells lacking MMR
  clonogenic survival, activity in MMR− cells: abolished
MGMT−/MMR+ cells
  IR-induced comet tail (ICL formation): did not reduce DNA migration following IR
  comet tailing in the absence of IR: induced tailing
[1]
  CHK1 and CHK2 phosphorylation: only induced phospho-CHK1 and —CHK2 in MGMT−/MMR+cells

## NC(=O)c1ncn2c(=O)n(CCF)nnc12 [KL-50]
LN229 MGMT− shMLH1 cells
  IC50: 7.8 ± 0.3 µM
  MGMT− RI: 0.6
LN229 MGMT− shPMS2 cells
  IC50: 5.4 ± 0.3 µM
  MGMT− RI: 0.4
MGMT+ LN229 cells; at doses up to at least 200 μM
  clonogenic survival, toxicity to MGMT+ cells: minimal toxicity
MGMT− LN229 cells; independent of MMR status
  clonogenic survival, antitumor activity in MGMT− cells: robust antitumor activity
MGMT−/MMR+ cells
  IR-induced comet tail (ICL formation): reduced the % DNA in the tail to levels similar to those seen for 0.1 μM MMC
  comet tailing in the absence of IR: induced tailing
[1]
  CHK1 and CHK2 phosphorylation: induced CHK1 and CHK2 phosphorylation in MGMT-cells regardless of MMR status
